From publication PMC9925730, “Controlled sequential in situ self-assembly and disassembly of a fluorogenic cisplatin prodrug for cancer theranostics” (Nature Communications, 2023)
Where “and” joins values, the source holds several entries; their conditions need not be identical. Equal entries are not always repeated.

What was measured:
[1] = Blood analysis in healthy mice (blood count, biochemistry); type: in vivo; parameters: BUN / CRE / WBC / HGB / HCT / MCH / MCHC / MCV / RBC / ALT / AST / TP / T-Bil / Alb: unit not given here; settings: for ALT / AST / Alb / BUN / CRE / HCT / MCH / MCHC / MCV / PLT / RBC / T-Bil / TP / WBC: Supplementary Fig. 36
[2] = GSH-triggered reduction, disassembly of Pt^IVNPs and CDDP release in solution (HPLC, DLS, TEM, ICP-OES); parameters: amount of compound in the P-CyPt solution (HPLC, Fig. 2h) / mean size by TEM (Fig. 2i) / mean size by DLS (Fig. 2i): unit not given here; settings: for amount of compound in the P-CyPt solution (HPLC, Fig. 2h) / Pt release (ICP-OES, Fig. 2h) / mean size by DLS (Fig. 2i) / mean size by TEM (Fig. 2i): P-CyPt 10 μM
Protocol: To evaluate the ALP-triggered dephosphorylation and in situ self-assembly process, a solution of P-CyPt (10 μM) in Tris buffer (1 mL) was incubated with ALP (100 U/L) at 37 °C. HPLC, DLS, and TEM analyses were performed at 0, 5, 10, 15, 20, and 30 min. To evaluate the GSH-triggered reduction and disassembly process, P-CyPt (10 μM) in Tris buffer (1 mL) was first incubated with ALP (100 U/L) at 37 °C for 30 min to allow the formation of Pt^IVNPs. The solution was then treated with 10 mM GSH at 37 °C, which was monitored by HPLC, DLS, and TEM at 10, 20, 30, 40, 50, and 60 min.
(a) 5 mM GSH 10 mM GSH(b ) (c)
60 min 60 min CyPt Cy- CO O H
Time (min) Time (min) Time (min)
Supplementary Figure 9. HPLC traces of the time-dependent conversion of PtIVNPs (CyPt) into Cy-COOH under incubation with 5 mM (a) or 10 mM GSH (b) in Tris buffer. (c) The conversion curves of PtIVNPs (CyPt) into Cy-COOH under incubation with 5 mM (red) or 10 mM GSH (black) in Tris buffer. P-CyPt (10 μM) was incubated with ALP (100 U/L, 37 °C) in Tris buffer for 30 min to allow complete dephosphorylation and in situ self-assembly into PtIVNPs. Then, GSH at a concentration of 5 mM or 10 mM was added and incubated for another 0, 10, 20, 30, 40, 50, and 60 min. The amounts of CyPt and Cy-COOH at each time point were quantified by HPLC.
Date are mean ± s.d. (n = 3 independent experiments). […]
Release of CDDP from PtIVNPs during disassembly process. P-CyPt (10 μM) in 5 mL Tris buffer was incubated with ALP (100 U/L) at 37 °C for 30 min to form PtIVNPs, followed by addition with 10 mM GSH at 37 °C. After 10, 20, 30, 40, 50 and 60 min, 50 mM N-ethylmaleimide was added into the solution to scavenge GSH. The reaction solution was centrifuged at 13,000 × g and the supernatant was collected. The supernatants were digested with concentrated HNO3 (65~70%) and HCl (36~38%) at 90 °C for 24 h. The solution was diluted to 5 mL 2% HNO3 and 5% HCl solution, and the concentration of Pt element was measured by ICP-OES, which was further applied to calculate the amount of CDDP (denoted as NPt) released in the solution. The percentage of Pt release at each time point was calculated according to the formula:
Pt release % = NPt/N0 × 100% (9)
Where N0 represents the total amount of Pt in the in situ formed PtIVNPs, and NPt represents the amount of Pt released from PtIVNPs following incubation with GSH.
Characterization of enzyme kinetics of P-CyPt towards ALP. Briefly, varying concentrations of P-CyPt (0.5, 1.0, 2.0, 3.0, 4.0, and 5.0 μM) in 100 μL Tris buffer were placed in a 96-well black plate. The reactions were initiated upon addition of 100 μL ALP (30 U/L) to each solution. The resulting fluorescence intensities in each well in the first five minutes were recorded on a Spark™ 10M Multimode Microplate Reader (λex/em = 680/710 nm). The amount of CyPt at each time point was determined by a standard curve under the same conditions. Kinetics values, including Km and Vmax, were determined according to the Lineweaver-Burk plot.
Determination of the sensitivity of P-CyPt towards ALP. To evaluate the sensitivity of P-CyPt towards ALP, P-CyPt (10 μM) was incubated with varying concentrations of […]
30 min, and the fluorescence spectra were then recorded on a HORIBA Jobin Yvon Fluoromax-4 fluorometer, with an excitation at 680 nm. The resulting fluorescence intensities at 710 nm were plotted to the con centrations of ALP, and a linear regression fitted from 0 -20 U/L ALP was obtained, affording the slope k. The detection limit was calculated from 3σ/k, where σ represents the standard deviation of 11 blank […]
Determination of the specificity towards ALP. The specificity towards ALP in vitro was evaluated based on fluorescence, respectively. P-CyPt (10 μM) in Tris buffer was incubated with 10 nmol/L of MMP-2, 100 U/L of γ-glutamyl transferase (GGT), 100 U/L Cathepsin B (CTB), 0.2 μg/mL of Caspase-3/7, 2.5 mg/mL of Trypsin, 100 U/L of ALP or 100 U/L ALP pretreated with its inhibitors, Na 3VO4 (100 μM) for 10 min. The […]

[3] = Supplementary Fig. 36, first HGB block, individual mice
[4] = Supplementary Fig. 36, first HGB block, mean of 3 mice
[5] = ALP 30 min then GSH 10 mM 10 min (time 40)
[6] = ALP 30 min then GSH 10 mM 20 min (time 50)
[7] = ALP 30 min then GSH 10 mM 30 min (time 60)
[8] = ALP 30 min then GSH 10 mM 40 min (time 70)
[9] = ALP 30 min then GSH 10 mM 50 min (time 80)
[10] = ALP 30 min then GSH 10 mM 60 min (time 90)

SMILES: [NH2][Pt]([NH2])([Cl])[Cl] [CDDP, cisplatin]
- HGB [1, 3]: 90 (2×) and 67
- HGB [1, 4]: 82.333
- ALT ([1]; individual mice): 45.502 and 43.964 and 66.025
- AST ([1]; individual mice): 126.05 and 97.802 and 100.507
- Alb ([1]; individual mice): 26.65 and 25.18 and 35.22
- BUN ([1]; individual mice): 18.956 and 37.908 and 23.94
- CRE ([1]; individual mice): 19.831 and 68.509 and 25.561
- HCT ([1]; individual mice): 35.4 and 40.2 and 41.2
- MCH ([1]; individual mice): 16.6 and 15.9 and 18.6
- MCHC ([1]; individual mice): 350 and 331 and 324
- MCV ([1]; individual mice): 51.5 and 49.5 and 51.3
- PLT ([1]; individual mice): 591 and 289 and 329
- RBC ([1]; individual mice): 7.14 and 6.54 and 6.58
- T-Bil ([1]; individual mice): 21.47 and 18.852 and 18.358
- TP ([1]; individual mice): 42.81 and 40.21 and 50.47
- WBC ([1]; individual mice): 1.9 and 1.2 and 1.6
- ALT ([1]; mean of 3 mice): 51.830
- AST ([1]; mean of 3 mice): 108.120
- Alb ([1]; mean of 3 mice): 29.017
- BUN ([1]; mean of 3 mice): 26.935
- CRE ([1]; mean of 3 mice): 37.967
- HCT ([1]; mean of 3 mice): 38.933
- MCH ([1]; mean of 3 mice): 17.033
- MCHC ([1]; mean of 3 mice): 335.000
- MCV ([1]; mean of 3 mice): 50.767
- PLT ([1]; mean of 3 mice): 403.000
- RBC ([1]; mean of 3 mice): 6.753
- T-Bil ([1]; mean of 3 mice): 19.560
- TP ([1]; mean of 3 mice): 44.497
- WBC ([1]; mean of 3 mice): 1.567

SMILES: CC1(C)C(/C=C/C2=C3Oc4cc(O)c(Cl)cc4C=C3CCC2)=[N+](CCCNC(=O)[C@@H](Cc2ccccc2)NC(=O)[C@@H](Cc2ccccc2)NC(=O)CCC(=O)[O][Pt]([NH2])([NH2])([OH])([Cl])[Cl])c2ccccc21 [CyPt]
- reduction of CyPt in Pt^IVNPs into Cy-COOH (HPLC) ([2]; 5 or 10 mM GSH, after 60 min): completely reduced into Cy-COOH
- amount of compound in the P-CyPt solution (HPLC, Fig. 2h) [2, 5]: 82.67
- amount of compound in the P-CyPt solution (HPLC, Fig. 2h) [2, 6]: 59.68
- amount of compound in the P-CyPt solution (HPLC, Fig. 2h) [2, 7]: 38.50
- amount of compound in the P-CyPt solution (HPLC, Fig. 2h) [2, 8]: 22.16
- amount of compound in the P-CyPt solution (HPLC, Fig. 2h) [2, 9]: 9.16
- amount of compound in the P-CyPt solution (HPLC, Fig. 2h) [2, 10]: 0.00

SMILES: CC1(C)C(/C=C/C2=C3Oc4cc(OP(=O)(O)O)c(Cl)cc4C=C3CCC2)=[N+](CCCNC(=O)[C@@H](Cc2ccccc2)NC(=O)[C@@H](Cc2ccccc2)NC(=O)CCC(=O)[O][Pt]([NH2])([NH2])([OH])([Cl])[Cl])c2ccccc21 [P-CyPt]
- Pt release (ICP-OES, Fig. 2h) [2, 5]: 19.98%
- amount of compound in the P-CyPt solution (HPLC, Fig. 2h) [2, 5]: 0
- mean size by DLS (Fig. 2i) [2, 5]: 133.97
- mean size by TEM (Fig. 2i) [2, 5]: 128.24
- Pt release (ICP-OES, Fig. 2h) [2, 6]: 42.65%
- amount of compound in the P-CyPt solution (HPLC, Fig. 2h) [2, 6]: 0
- mean size by DLS (Fig. 2i) [2, 6]: 96.71
- mean size by TEM (Fig. 2i) [2, 6]: 91.24
- Pt release (ICP-OES, Fig. 2h) [2, 7]: 64.34%
- amount of compound in the P-CyPt solution (HPLC, Fig. 2h) [2, 7]: 0
- mean size by DLS (Fig. 2i) [2, 7]: 62.38
- mean size by TEM (Fig. 2i) [2, 7]: 68.92
- Pt release (ICP-OES, Fig. 2h) [2, 8]: 80.43%
- amount of compound in the P-CyPt solution (HPLC, Fig. 2h) [2, 8]: 0
- mean size by DLS (Fig. 2i) [2, 8]: 35.90
- mean size by TEM (Fig. 2i) [2, 8]: 38.87
- Pt release (ICP-OES, Fig. 2h) [2, 9]: 95.70%
- amount of compound in the P-CyPt solution (HPLC, Fig. 2h) [2, 9]: 0
- mean size by DLS (Fig. 2i) [2, 9]: 14.84
- mean size by TEM (Fig. 2i) [2, 9]: 11.31
- Pt release (ICP-OES, Fig. 2h) [2, 10]: 99.63%
- amount of compound in the P-CyPt solution (HPLC, Fig. 2h) [2, 10]: 0
- mean size by DLS (Fig. 2i) [2, 10]: 0.00
- mean size by TEM (Fig. 2i) [2, 10]: 0.00
- HGB [1, 3]: 124 and 128 and 97
- HGB [1, 4]: 116.333
- HGB ([1]; Supplementary Fig. 36, second HGB block (between AST and TP), mean of 3 mice): 3.426
- ALT ([1]; individual mice): 64.638 and 69.471 and 57.14
- AST ([1]; individual mice): 93.668 and 95.637 and 124.668
- Alb ([1]; individual mice): 28.06 and 34.76 and 32.73
- BUN ([1]; individual mice): 22.456 and 18.592 and 16.632
- CRE ([1]; individual mice): 23.568 and 18.005 and 14.662
- HCT ([1]; individual mice): 42 and 36 and 35.3
- MCH ([1]; individual mice): 18.3 and 18.9 and 16.6
- MCHC ([1]; individual mice): 315 and 345 and 304
- MCV ([1]; individual mice): 50.3 and 49.6 and 53.5
- PLT ([1]; individual mice): 463 and 494 and 673
- RBC ([1]; individual mice): 7.22 and 7.49 and 6.74
- T-Bil ([1]; individual mice): 20.416 and 17.788 and 25.91
- TP ([1]; individual mice): 41.72 and 48.65 and 44.25
- WBC ([1]; individual mice): 2.3 and 2.6 and 1.5
- ALT ([1]; mean of 3 mice): 63.750
- AST ([1]; mean of 3 mice): 104.658
- Alb ([1]; mean of 3 mice): 31.850
- BUN ([1]; mean of 3 mice): 19.227
- CRE ([1]; mean of 3 mice): 18.745
- HCT ([1]; mean of 3 mice): 37.767
- MCH ([1]; mean of 3 mice): 17.933
- MCHC ([1]; mean of 3 mice): 321.333
- MCV ([1]; mean of 3 mice): 51.133
- PLT ([1]; mean of 3 mice): 543.333
- RBC ([1]; mean of 3 mice): 7.150
- T-Bil ([1]; mean of 3 mice): 21.371
- TP ([1]; mean of 3 mice): 44.873
- WBC ([1]; mean of 3 mice): 2.133
- blood count and biochemistry values ([1]; healthy nude mice, 1 day post i.v. 2.25 mg kg-1 Pt): all the values were within the normal reference
